Laboratory results from ChEMBL document CHEMBL6153138, “Discovery of Novel Aromatic Urea-Imidazole Salt Derivatives for Cancer Therapy via Targeting ERK1/2” (J Med Chem, 2025).
Active and inactive are the calls of the source. No cut-off for these calls is given here.

What was measured:
[1] = system: MCF7; assay: Induction of autophagy in human MCF7 cells harbouring ATG5 knockout assessed as increase in LC3B expression at 1 uM incubated for 48 hrs by Western blot analysis; assay type: functional, cell-based
[2] = target: Mitogen-activated protein kinase; ERK1/ERK2 (Homo sapiens) (UniProt P27361+P28482); assay: Induction of thermal stabilization of ERK1/2 in human MCF7 cells at 10 uM incubated for 3 hrs at 65 to 75 degree C by […] method; assay type: cell-based
Chain of Mitogen-activated protein kinase; ERK1/ERK2 (Homo sapiens) (P27361 whole entry, looked up): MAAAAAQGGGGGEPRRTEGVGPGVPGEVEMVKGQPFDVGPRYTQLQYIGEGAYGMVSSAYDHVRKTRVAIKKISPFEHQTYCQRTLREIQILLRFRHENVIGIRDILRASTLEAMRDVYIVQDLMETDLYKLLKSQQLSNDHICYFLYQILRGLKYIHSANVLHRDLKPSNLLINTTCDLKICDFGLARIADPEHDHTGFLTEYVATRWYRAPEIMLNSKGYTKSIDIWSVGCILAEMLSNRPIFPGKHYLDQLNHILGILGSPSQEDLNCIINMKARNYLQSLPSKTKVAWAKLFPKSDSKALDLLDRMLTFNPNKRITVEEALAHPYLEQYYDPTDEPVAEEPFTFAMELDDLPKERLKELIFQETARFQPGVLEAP
Chain of Mitogen-activated protein kinase; ERK1/ERK2 (Homo sapiens) (P28482 whole entry, looked up): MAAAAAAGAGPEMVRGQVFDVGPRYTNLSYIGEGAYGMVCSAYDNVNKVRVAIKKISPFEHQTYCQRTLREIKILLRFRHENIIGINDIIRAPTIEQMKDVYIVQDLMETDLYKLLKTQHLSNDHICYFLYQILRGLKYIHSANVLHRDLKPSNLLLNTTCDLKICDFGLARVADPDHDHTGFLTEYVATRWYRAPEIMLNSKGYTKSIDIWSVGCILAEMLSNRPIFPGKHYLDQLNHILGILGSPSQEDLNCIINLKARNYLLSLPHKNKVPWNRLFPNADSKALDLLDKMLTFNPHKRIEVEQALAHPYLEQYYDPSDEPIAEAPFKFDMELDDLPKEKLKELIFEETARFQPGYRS

[3] = target: Mitogen-activated protein kinase 1 (Homo sapiens, UniProt P28482); assay: Induction of thermal stabilization of ERK2 (unknown origin) at 10 uM by differential scanning fluorimetry analysis
Chain of Mitogen-activated protein kinase 1 (P28482 whole entry): as the sequence (P28482 whole entry, looked up) above

[4] = target: Mitogen-activated protein kinase 3 (Homo sapiens, UniProt P27361); assay: Binding affinity to ERK1 (unknown origin) assessed as dissociation constant by MST analysis
Chain of Mitogen-activated protein kinase 3 (P27361 whole entry): as the sequence (P27361 whole entry, looked up) above

[5] = system: MCF7; assay: Downregulation of c-Myc phosphorylation expression in human MCF7 cells at 0.5 to 2 uM measured after 30 mins to 4 hrs by Western blot analysis; assay type: functional, cell-based; conditions: dose 0.5-2 µM, time 30-240 min
[6] = system: MCF7; assay: Activation of ERK1/2 pathway in human MCF7 cells assessed as increase in EGF-induced c-Myc phosphorylation at 2 uM incubated for 30 mins by Western blot analysis; assay type: cell-based
[7] = system: MCF7; assay: Activation of ERK1/2 pathway in human MCF7 cells assessed as increase in EGF-induced p90RSK phosphorylation at 2 uM incubated for 30 mins by Western blot analysis; assay type: cell-based
[8] = system: MCF7; assay: Upregulation of ERK1/2 phosphorylation expression in human MCF7 cells at 2 uM measured after 8 hrs by immunofluorescence analysis; assay type: functional, cell-based
[9] = target: Vascular endothelial growth factor receptor 1 (Homo sapiens) (UniProt P17948); assay: Inhibition of human FLT1 at 10000 nM by DiscoverX KINOMEscan assay relative to control
Chain of Vascular endothelial growth factor receptor 1 (Homo sapiens) (P17948 whole entry): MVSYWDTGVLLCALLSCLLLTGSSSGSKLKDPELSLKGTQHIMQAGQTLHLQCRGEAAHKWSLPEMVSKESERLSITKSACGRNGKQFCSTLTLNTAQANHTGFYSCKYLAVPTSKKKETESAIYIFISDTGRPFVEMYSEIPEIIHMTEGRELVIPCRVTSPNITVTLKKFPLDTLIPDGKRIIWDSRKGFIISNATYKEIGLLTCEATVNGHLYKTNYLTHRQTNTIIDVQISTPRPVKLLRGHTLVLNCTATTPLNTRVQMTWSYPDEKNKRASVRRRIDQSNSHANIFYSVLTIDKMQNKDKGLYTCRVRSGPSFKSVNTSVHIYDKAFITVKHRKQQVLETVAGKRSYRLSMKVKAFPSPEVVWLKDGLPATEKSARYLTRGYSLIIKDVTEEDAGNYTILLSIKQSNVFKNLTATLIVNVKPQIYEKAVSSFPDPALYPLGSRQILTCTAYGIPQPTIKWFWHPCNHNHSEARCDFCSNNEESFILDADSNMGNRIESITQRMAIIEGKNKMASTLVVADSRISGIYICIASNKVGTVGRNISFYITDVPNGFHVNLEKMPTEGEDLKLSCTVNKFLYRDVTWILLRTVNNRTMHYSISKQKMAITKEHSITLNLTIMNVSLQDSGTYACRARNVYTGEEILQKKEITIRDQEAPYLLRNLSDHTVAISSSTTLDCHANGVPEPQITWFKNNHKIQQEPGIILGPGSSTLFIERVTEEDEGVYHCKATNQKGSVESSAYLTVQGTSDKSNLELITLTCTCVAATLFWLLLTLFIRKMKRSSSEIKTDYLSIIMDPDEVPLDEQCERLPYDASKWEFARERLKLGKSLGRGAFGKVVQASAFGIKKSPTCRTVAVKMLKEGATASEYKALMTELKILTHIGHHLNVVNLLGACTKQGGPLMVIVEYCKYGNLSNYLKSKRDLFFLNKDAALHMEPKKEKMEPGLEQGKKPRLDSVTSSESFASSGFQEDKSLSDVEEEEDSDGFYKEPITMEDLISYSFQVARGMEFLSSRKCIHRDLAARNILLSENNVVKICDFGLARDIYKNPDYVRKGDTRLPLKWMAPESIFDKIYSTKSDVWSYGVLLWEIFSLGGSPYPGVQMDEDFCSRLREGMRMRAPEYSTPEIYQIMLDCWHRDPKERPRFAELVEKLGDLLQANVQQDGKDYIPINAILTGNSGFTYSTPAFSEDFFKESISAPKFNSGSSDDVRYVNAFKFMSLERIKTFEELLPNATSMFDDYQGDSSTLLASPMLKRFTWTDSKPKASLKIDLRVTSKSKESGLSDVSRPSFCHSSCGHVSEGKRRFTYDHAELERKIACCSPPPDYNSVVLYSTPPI

[10] = target: Vascular endothelial growth factor receptor 3 (Homo sapiens) (UniProt P35916); assay: Inhibition of human FLT4 at 10000 nM by DiscoverX KINOMEscan assay relative to control
Chain of Vascular endothelial growth factor receptor 3 (Homo sapiens) (P35916 whole entry): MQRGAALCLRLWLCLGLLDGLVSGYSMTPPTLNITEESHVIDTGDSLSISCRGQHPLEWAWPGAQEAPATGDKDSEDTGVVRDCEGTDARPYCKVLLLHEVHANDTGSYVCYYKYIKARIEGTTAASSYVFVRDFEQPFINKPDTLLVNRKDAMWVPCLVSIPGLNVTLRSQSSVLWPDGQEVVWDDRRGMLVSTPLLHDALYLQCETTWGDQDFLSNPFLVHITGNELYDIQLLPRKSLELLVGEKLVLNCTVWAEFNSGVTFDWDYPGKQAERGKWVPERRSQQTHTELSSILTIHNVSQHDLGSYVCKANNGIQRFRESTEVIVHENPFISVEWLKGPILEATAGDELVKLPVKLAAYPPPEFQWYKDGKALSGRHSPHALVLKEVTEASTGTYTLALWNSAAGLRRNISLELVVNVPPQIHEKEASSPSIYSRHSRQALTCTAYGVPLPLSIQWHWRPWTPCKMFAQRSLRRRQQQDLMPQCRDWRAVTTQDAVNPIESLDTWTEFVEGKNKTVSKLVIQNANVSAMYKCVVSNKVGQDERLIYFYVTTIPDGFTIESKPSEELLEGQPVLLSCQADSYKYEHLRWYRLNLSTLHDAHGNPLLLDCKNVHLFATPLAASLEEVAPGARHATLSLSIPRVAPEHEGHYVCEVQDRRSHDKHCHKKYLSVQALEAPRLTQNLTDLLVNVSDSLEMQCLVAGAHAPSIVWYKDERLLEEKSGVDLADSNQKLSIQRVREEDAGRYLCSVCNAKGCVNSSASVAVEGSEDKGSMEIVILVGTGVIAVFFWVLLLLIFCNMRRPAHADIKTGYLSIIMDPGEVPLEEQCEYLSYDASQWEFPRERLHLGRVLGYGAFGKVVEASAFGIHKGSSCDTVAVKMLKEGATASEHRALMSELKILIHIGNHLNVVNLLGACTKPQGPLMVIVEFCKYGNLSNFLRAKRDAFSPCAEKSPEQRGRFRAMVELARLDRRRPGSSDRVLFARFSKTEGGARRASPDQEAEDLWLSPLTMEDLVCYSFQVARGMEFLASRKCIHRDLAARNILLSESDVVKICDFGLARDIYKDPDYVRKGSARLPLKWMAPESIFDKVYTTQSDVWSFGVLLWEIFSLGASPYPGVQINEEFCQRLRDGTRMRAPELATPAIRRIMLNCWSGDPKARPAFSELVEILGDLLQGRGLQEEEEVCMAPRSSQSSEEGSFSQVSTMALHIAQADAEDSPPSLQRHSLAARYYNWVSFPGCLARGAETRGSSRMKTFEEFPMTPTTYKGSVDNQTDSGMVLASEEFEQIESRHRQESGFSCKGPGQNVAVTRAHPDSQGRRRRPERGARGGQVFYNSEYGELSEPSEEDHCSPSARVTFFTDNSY

[11] = target: Macrophage colony-stimulating factor 1 receptor (Homo sapiens) (UniProt P07333); assay: Inhibition of human FMS at 10000 nM by DiscoverX KINOMEscan assay relative to control
Chain of Macrophage colony-stimulating factor 1 receptor (Homo sapiens) (P07333 whole entry): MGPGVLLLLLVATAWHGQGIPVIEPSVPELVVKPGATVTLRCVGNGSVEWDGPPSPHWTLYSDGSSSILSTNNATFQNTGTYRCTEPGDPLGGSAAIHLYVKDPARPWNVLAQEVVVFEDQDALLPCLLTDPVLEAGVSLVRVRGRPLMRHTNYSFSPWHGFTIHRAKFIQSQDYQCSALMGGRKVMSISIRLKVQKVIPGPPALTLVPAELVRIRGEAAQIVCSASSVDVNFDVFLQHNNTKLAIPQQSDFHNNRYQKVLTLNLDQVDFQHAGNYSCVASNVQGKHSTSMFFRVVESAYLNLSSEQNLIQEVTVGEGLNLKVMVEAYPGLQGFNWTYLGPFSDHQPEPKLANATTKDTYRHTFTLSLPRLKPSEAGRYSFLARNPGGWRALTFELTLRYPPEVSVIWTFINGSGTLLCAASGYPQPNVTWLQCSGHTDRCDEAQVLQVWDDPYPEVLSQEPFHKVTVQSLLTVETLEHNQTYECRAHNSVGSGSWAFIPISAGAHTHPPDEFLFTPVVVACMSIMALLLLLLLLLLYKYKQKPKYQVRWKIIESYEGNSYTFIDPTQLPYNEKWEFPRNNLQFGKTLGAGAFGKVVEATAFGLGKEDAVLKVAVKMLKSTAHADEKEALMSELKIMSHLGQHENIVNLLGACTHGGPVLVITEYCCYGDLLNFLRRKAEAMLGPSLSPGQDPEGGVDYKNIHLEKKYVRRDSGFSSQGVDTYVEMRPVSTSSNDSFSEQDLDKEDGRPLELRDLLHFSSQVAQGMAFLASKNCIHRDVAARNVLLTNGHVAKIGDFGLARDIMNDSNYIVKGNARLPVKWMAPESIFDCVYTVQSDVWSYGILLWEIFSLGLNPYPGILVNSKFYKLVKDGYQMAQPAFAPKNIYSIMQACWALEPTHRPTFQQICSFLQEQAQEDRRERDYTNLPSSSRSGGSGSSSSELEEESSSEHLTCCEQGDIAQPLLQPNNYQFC

[12] = system: MCF7; assay: Downregulation of N-cadherin expression in human MCF7 cells at 0.5 to 2 uM; assay type: functional, cell-based; conditions: dose 0.5-2 µM
[13] = system: Mitochondrial membrane; assay: Induction of mitochondrial membrane potential loss in human MCF7 cells assessed as reduction in JC-1 aggregates by measuring decrease in red fluorescence at 1 uM by flow cytometry analysis (reference value: 24.7%); assay type: cell membranes; set-up: scale not given: the % may be the effect or the level left
[14] = system: Mitochondrial membrane; assay: Induction of mitochondrial membrane potential loss in human MCF7 cells assessed as increase in JC-1 monomers by measuring increase in green fluorescence at 2 uM by flow cytometry analysis (reference value: 38.0%); assay type: cell membranes
[15] = system: MCF7; assay: Induction of apoptosis in human MCF7 cells assessed as early apoptotic cells at 0.5 uM incubated for 48 hrs by Annexin V/FITC and PI staining based flow cytometry analysis (reference value: 1.1%); assay type: functional
[16] = system: MCF7; assay: Induction of autophagy in human MCF7 cells assessed as increase in ATG5 level at 1 uM by Western blot analysis; assay type: functional, cell-based
[17] = system: MCF7; assay: Induction of autophagic flux in human MCF7 cells assessed as decrease in p62 protein level at 0.5 to 2 uM incubated for 48 hrs by Western blotting analysis; assay type: functional, cell-based; conditions: dose 0.5-2 µM
[18] = system: MCF7; assay: Induction of autophagic flux in human MCF7 cells assessed as increase in LC3B-II expression at 1 uM incubated for 48 hrs in presence of chloroquine by Western blot analysis; assay type: functional, cell-based
[19] = system: MCF7; assay: Upregulation of caspase3 protein expression in human MCF-7 cells at 1 uM incubated for 6 hrs in presence of 3-methyladenine by Western blot analysis; assay type: functional, cell-based
[20] = system: MCF7; assay: Upregulation of C-caspase3 protein expression in human MCF-7 cells at 1 uM incubated for 6 hrs in presence of chloroquine by Western blot analysis; assay type: functional, cell-based
[21] = system: MCF7; assay: Induction of apoptosis in human MCF7 cells assessed as early apoptotic cells at 1 uM incubated for 48 hrs by Annexin V/FITC and PI staining based flow cytometry analysis (reference value: 6.64%); assay type: functional
[22] = Toxicity in female BALB/c mouse assessed as change in body weight at 25 to 50 mg/kg, po qd measured after 18 days; assay type: organism-based; conditions: in vivo, 432 h, dose 25-50 mg/kg, time 18 day
[23] = Toxicity in female BALB/c mouse assessed as effect on tumor at 25 to 50 mg/kg, po qd measured after 18 days by H and E staining based analysis; assay type: organism-based; conditions: in vivo, 432 h, dose 25-50 mg/kg, time 18 day
[24] = Toxicity in female BALB/c mouse assessed as effect on liver at 25 to 50 mg/kg, po qd measured after 18 days by H and E staining based analysis; assay type: organism-based; conditions: in vivo, 432 h, dose 25-50 mg/kg, time 18 day
[25] = Toxicity in female BALB/c mouse assessed as effect on kidney at 25 to 50 mg/kg, po qd measured after 18 days by H and E staining based analysis; assay type: organism-based; conditions: in vivo, 432 h, dose 25-50 mg/kg, time 18 day
[26] = Toxicity in female BALB/c mouse assessed as effect TP level in serum at 25 to 50 mg/kg, po qd measured after 18 days by biochemical analysis; assay type: organism-based; conditions: in vivo, 432 h, dose 25-50 mg/kg, time 18 day
[27] = Toxicity in female BALB/c mouse assessed as effect GLU level in serum at 25 to 50 mg/kg, po qd measured after 18 days by biochemical analysis; assay type: organism-based; conditions: in vivo, 432 h, dose 25-50 mg/kg, time 18 day
[28] = Toxicity in female BALB/c mouse assessed as effect TG level in serum at 25 to 50 mg/kg, po qd measured after 18 days by biochemical analysis; assay type: organism-based; conditions: in vivo, 432 h, dose 25-50 mg/kg, time 18 day
[29] = system: 4T1; assay: Antitumor activity against mouse 4T1 cells implanted in female BALB/c mouse model assessed as increase in ERK1/2 phosphorylation at 50 mg/kg, po qd measured from 30 mins to 8 hrs by immunohistochemical analysis; assay type: functional, organism-based; conditions: time 30-480 min
[30] = system: 4T1; assay: Antitumor activity against mouse 4T1 cells implanted in female BALB/c mouse model assessed as reduction in p-90RSK phosphorylation level at 50 mg/kg, po qd by immunohistochemical analysis; assay type: functional, organism-based
[31] = Toxicity in female BALB/c mouse assessed as change in body weight at 50 mg/kg, po qd measured after 18 days in presence of chloroquine; assay type: organism-based; conditions: in vivo, 432 h, time 18 day
[32] = Toxicity in female BALB/c mouse assessed as effect on kidney at 50 mg/kg, po qd measured after 18 days in presence of chloroquine by H and E staining based analysis; assay type: organism-based; conditions: in vivo, 432 h, time 18 day
[33] = system: 4T1; assay: Antitumor activity against mouse 4T1 cells implanted in female BALB/c mouse model assessed as reduction in Ki67 expression at 50 mg/kg, po in presence of chloroquine by immunohistochemical analysis; assay type: functional, organism-based
[34] = system: 4T1; assay: Antitumor activity against mouse 4T1 cells implanted in female BALB/c mouse model assessed as increase in LC3B expression administered as po by immunohistochemical analysis; assay type: functional, organism-based; conditions: dose 25-50 mg/kg
[35] = system: 4T1-Luc; assay: Anti-metastatic activity in mouse 4T1-Luc cells assessed as reduction in fluorescence intensity at 25 to 50 mg/kg, po measured after 16 days; assay type: functional, organism-based; conditions: dose 25-50 mg/kg, time 16.0 day

O=C(Nc1cc(C(F)(F)F)cc(C(F)(F)F)c1)N[C@@H](Cc1ccccc1)Cn1c[n+](Cc2ccc3ccccc3c2)c2ccccc21.[Br-]
Activity [1]: inactive | Activity [2]: Active | Activity [3]: Active | Kd [4]: 0.159 µM | Activity [5]: Active | Activity [6]: inactive | Activity [7]: inactive | Activity [8]: Active | inhibition [9]: 19% | inhibition [10]: 18% | inhibition [11]: 19% | Activity [12]: Active | Activity [13]: 9.86% | Activity [14]: 52.4% | Activity [15]: 9.9% | Activity [16]: Active | Activity [17]: Active | Activity [18]: Active | Activity [19]: Active | Activity [20]: Active | Activity [21]: 4.58% | Activity [22]: Non-toxic | Activity [23]: Non-toxic | Activity [24]: Non-toxic | Activity [25]: Non-toxic | Activity [26]: Non-toxic | Activity [27]: Non-toxic | Activity [28]: Non-toxic | Activity [29]: Active | Activity [30]: Active | Activity [31]: Non-toxic | Activity [32]: Non-toxic | Activity [33]: Active | Activity [34]: Dose-dependent-effect | Activity [35]: Active
